Experimental findings from patent US5912414A, “Nucleic acid fragments, chimeric genes and methods for increasing the methionine content of the seeds of plants” (priority 1996, dated 1999) are described below.

For orientation: inhibition means the drop in the measured response relative to a control, in per cent.

The test system of assay [1] is E. coli strain Gif106M1 transformed with pBT436. As to the kind of experiment: Growth inhibition of Gif106M1 transformed with pBT436 on supplemented M9 media. Conditions: M9 media with arginine, isoleucine, ampicillin; reversed by threonine plus methionine. The assay is classed as cell-based. An excerpt:
To establish that the cloned lysC gene was functional, pBT436 was transformed into E. coli strain Gif106M1 (E. coli Genetic Stock Center strain CGSC-5074) which has mutations in each of the three E. coli AK genes [Theze et al. (1974) J. Bacteriol. 117:133-143]. This strain lacks all AK activity and therefore requires diaminopimelate (a precursor to lysine which is also essential for cell wall biosynthesis), threonine and methionine.
Addition of lysine (or diaminopimelate which is readily converted to lysine in vivo) at a concentration of approximately 0.2 mM to the growth medium inhibits the growth of Gif106M1 transformed with pBT436.M9 media [see Sambrook et al. (1989) Molecular Cloning: a Laboratory Manual, Cold Spring Harbor Laboratory Press] supplemented with the arginine and isoleucine, required for Gif106M1 growth, and ampicillin, to maintain selection for the pBT436 plasmid, was used. This inhibition is reversed by addition of threonine plus methionine to the growth media. […] This property of pBT436-transformed Gif106M1 was used to select for mutations in lysC that encoded lysine-insensitive AKIII.

Assay [2] has as its target T1, AKII-HDHII (HDH activity) (Escherichia coli, UniProt P00562).
T1 construct: made in house; host or cells: E. coli BL21(DE3), pBT430-derived expression vector; sonicated cell extract of clone 5 (pBT718)
Put plainly: Inhibition of HDH activity of clone 5 extract (metL, AKII-HDHII) by pathway end-products. The class given is biochemical, E. coli. The note with it: 30 mM end-product; extract from clone 5. On the procedure:
(§1) Cultures were grown in TB medium containing ampicillin (100 mg/L) at 37° C. overnight. The cells were collected by centrifugation and resuspended in 1/25th the original culture volume in 50 mM NaCl; 50 mM Tris-Cl, pH 7.5; 1 mM EDTA, and frozen at -20° C., thawed at 37° C. and sonicated, in an ice-water bath, to lyse the cells. The lysate was centrifuged at 4° C. for 5 min at 12,000 rpm. The supernatant was removed and the pellet was resuspended in the above buffer.
The supernatant fractions were assayed for HDH enzyme activities to identify clones expressing functional proteins. HDH activity was assayed as shown below: […]
Make Mixture of above reagents with amounts multiplied by number of assays. Use 0.9 mls of mix for 1 ml assay; 180 μl of mix for 0.2 ml assay in microtiter dish
to 1/2 the assay mix; remaining 1/2 lacks ASA to serve as blank
Add enzyme extract last to start reaction. Incubate at ~30° C.; monitor NADPH oxidation at […]. 1 unit oxidizes 1 μmol NADPH/min at 30° C. in the 1 ml reaction.
(§2) Two extracts also had high levels of AK enzyme activity. These two extracts were then tested for inhibition of AK or HDH activity by the pathway end-products, lys, thr and met.

Another assay deals with T2, AKII-HDHII (AK activity) (Escherichia coli, UniProt P00562).
T2 construct: made in house; host or cells: E. coli BL21(DE3), pBT430-derived expression vector; sonicated cell extract of clone 5 (pBT718)
Put plainly: Inhibition of AK activity of clone 5 extract (metL, AKII-HDHII) by pathway end-products. The assay is classed as biochemical, E. coli. The note with it: 30 mM end-product; extract from clone 5. As to the method: as §1
(§3) Assay mix (for 12×1.0 mL or 48×0.25 mL assays):
(§4) Each 1.5 ml eppendorf assay tube contains: […]
(§5) Spin for 2 min in eppendorf centrifuge tube.
as §2

The next assay addresses T3, wild type AKIII (Escherichia coli, UniProt P08660).
T3 construct: made in house; host or cells: E. coli Gif106M1 transformed with pBT436 (the plasmid of the cloned wild type lysC gene)
As to the kind of experiment: Inhibition of wild type AKIII aspartokinase activity by lysine. The assay is classed as biochemical, E. coli. On the procedure:
Single colonies of Gif106M1 transformed with pBT436 were picked and resuspended in 200 μL of a mixture of 100 μL 1% lysine plus 100 μL of M9 media. The entire cell suspension containing 10^7 -10^8 cells was spread on a petri dish containing M9 media supplemented with the arginine, isoleucine, and ampicillin. Sixteen petri dishes were thus prepared. From 1 to 20 colonies appeared on 11 of the 16 petri dishes. One or two (if available) colonies were picked and retested for lysine resistance and from this nine lysine-resistant clones were obtained. Plasmid DNA was prepared from eight of these and re-transformed into Gif106M1 to determine whether the lysine resistance determinant was plasmid-borne. Six of the eight plasmid DNAs yielded lysine-resistant colonies. Three of these six carried lysC genes encoding AKIII that was uninhibited by 15 mM lysine, whereas wild type AKIII is 50% inhibited by 0.3-0.4 mM lysine and >90% inhibited by 1 mM lysine (see Example 2 for details).
as §3, §4, §5

For assay [3], the system named is lysine-insensitive AKIII (mutant lysC genes M2, M3, M4). As to the kind of experiment: Inhibition by lysine of AKIII encoded by mutant lysC genes (lysine-resistant clones). The class given is biochemical, E. coli. The note with it: 15 mM lysine; three of six lysine-resistant plasmids.

T2 sequence (P00562 other isoform, or with tags, fused parts or gaps): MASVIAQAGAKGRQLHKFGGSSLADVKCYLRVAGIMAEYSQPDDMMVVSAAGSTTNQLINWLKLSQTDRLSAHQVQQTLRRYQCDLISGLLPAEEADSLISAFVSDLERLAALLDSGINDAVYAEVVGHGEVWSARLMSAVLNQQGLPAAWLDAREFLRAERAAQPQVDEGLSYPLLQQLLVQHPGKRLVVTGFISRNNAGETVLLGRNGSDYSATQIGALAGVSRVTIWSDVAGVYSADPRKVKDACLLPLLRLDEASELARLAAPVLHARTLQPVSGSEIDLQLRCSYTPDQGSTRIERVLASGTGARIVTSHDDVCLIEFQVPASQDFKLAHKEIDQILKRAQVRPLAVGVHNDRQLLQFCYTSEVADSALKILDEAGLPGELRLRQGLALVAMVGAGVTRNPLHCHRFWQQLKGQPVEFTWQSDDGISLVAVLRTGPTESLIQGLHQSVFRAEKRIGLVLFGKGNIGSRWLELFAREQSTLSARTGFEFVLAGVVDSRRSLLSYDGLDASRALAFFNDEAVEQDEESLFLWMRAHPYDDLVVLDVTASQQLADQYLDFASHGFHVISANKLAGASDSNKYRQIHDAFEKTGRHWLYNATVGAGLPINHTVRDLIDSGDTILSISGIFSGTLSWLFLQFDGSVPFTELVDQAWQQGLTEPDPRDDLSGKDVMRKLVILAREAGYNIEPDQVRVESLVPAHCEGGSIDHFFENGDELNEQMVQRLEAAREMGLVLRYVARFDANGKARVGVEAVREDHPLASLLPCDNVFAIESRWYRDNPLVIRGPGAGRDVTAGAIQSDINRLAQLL
T1 sequence (P00562 other isoform, or with tags, fused parts or gaps): as above
T3 sequence (P08660 2-449): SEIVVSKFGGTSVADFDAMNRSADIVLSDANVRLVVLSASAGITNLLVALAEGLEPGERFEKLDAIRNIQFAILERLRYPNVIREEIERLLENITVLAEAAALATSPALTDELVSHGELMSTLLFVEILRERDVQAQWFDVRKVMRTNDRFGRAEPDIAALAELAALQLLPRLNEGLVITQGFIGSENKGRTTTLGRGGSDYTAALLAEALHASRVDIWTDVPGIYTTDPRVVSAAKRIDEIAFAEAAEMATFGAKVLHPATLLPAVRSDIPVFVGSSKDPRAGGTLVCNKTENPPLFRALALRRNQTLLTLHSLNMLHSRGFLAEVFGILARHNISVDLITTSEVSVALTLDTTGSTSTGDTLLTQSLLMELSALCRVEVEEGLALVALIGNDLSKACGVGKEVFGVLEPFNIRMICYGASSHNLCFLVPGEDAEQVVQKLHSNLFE

With `NC(CCCC(N)C(=O)O)C(=O)O` (centres unmarked) [diaminopimelate], the “concentration in the growth medium that inhibits growth” value in assay [1] was “approximately 0.2 mM”.
In the case of `NCCCC[C@H](N)C(=O)O` [lysine], the “inhibition of HDH activity” value in assay [2] is reported as “Neither the AK nor the HDH activity of the extract from clone 5 was inhibited”. Also, at AKII-HDHII (AK activity), the “inhibition of AK activity” value is given as “Neither the AK nor the HDH activity of the extract from clone 5 was inhibited”. The inhibition at 1000 µM on wild type AKIII (read-out: inhibition of wild type AKIII) was greater than 90%. Further, the IC50 on wild type AKIII (wild type AKIII from cloned lysC (pBT436), read-out: lysine concentration giving 50% inhibition of wild type AKIII) was 300 to 400 µM. The “inhibition of AKIII encoded by mutant lysC genes” value in assay [3] is recorded as “uninhibited”. Moreover, the “concentration in the growth medium that inhibits growth” value in assay [1] was “approximately 0.2 mM”.
Turning to `C[C@@H](O)[C@H](N)C(=O)O` [thr, threonine], the “inhibition of HDH activity” value in assay [2] is “Neither the AK nor the HDH activity of the extract from clone 5 was inhibited”. Besides, the “inhibition of AK activity” value on AKII-HDHII (AK activity) was “Neither the AK nor the HDH activity of the extract from clone 5 was inhibited”.
For `CSCC[C@H](N)C(=O)O` [met, methionine], in assay [2], the “inhibition of HDH activity” value is “Neither the AK nor the HDH activity of the extract from clone 5 was inhibited”. Moreover, at AKII-HDHII (AK activity), the “inhibition of AK activity” value is on record as “Neither the AK nor the HDH activity of the extract from clone 5 was inhibited”.
